± gives the expanded uncertainty stated by the source.

This passage reports viscosity, speed of sound and mass density results from the NIST ThermoML archive (doi:10.1016/j.fluid.2007.01.001).

For data set [1] the following is noted: 101 kPa, Liquid; for viscosity: Capillary tube (Ostwald / Ubbelohde) method; for speed of sound: Frequency=2 MHz, Linear variable-path acoustic interferometer; for mass density: Pycnometric method.
The nature of data set [2]: xn = mol fraction of the nth substance listed. Conditions: 101 kPa, Liquid, x1 = 1; for viscosity: Capillary tube (Ostwald / Ubbelohde) method; for speed of sound: Frequency=2 MHz, Linear variable-path acoustic interferometer; for mass density: Pycnometric method.

Take `CCCCCC(C)O` (configuration not stated) [2-heptanol]: in data set [1] (298.15 K), the viscosity (as a rule, the resistance of a fluid to flow) came out at 5.088 ± 0.41 mPa·s; the speed of sound (in general, the propagation velocity of pressure waves in the medium) stood at 1314 ± 3 m/s; the mass density (commonly mass per unit of volume) is recorded as 813.74 ± 0.69 kg/m3. In addition, in data set [1] (308.15 K), the viscosity amounted to 3.683 ± 0.3 mPa·s, the speed of sound came to 1274 ± 3 m/s and the mass density is 804.88 ± 0.7 kg/m3.

`CCCCC(C)O` (configuration not stated) [2-hexanol]: in data set [1] (298.15 K), the viscosity came to 4.105 ± 0.33 mPa·s, the speed of sound is reported as 1290 ± 3 m/s and the mass density is on record as 810.84 ± 0.7 kg/m3. In addition, in data set [1] (308.15 K), the viscosity was found to be 2.92 ± 0.23 mPa·s, the speed of sound is recorded as 1255 ± 3 m/s and the mass density worked out at 801.75 ± 0.71 kg/m3.

Consider `CCCCCCC(C)O` (configuration not stated) [2-octanol], for which, in data set [1] (298.15 K), the viscosity was determined as 6.429 ± 0.52 mPa·s, the speed of sound was determined as 1328 ± 3 m/s and the mass density came out at 817.08 ± 0.58 kg/m3. For the same molecule, in data set [1] (308.15 K), the viscosity amounted to 4.365 ± 0.35 mPa·s, the speed of sound stood at 1292 ± 3 m/s and the mass density worked out at 809.89 ± 0.6 kg/m3.

As for `Cc1ccccc1` [toluene], in data set [1] (298.15 K), the viscosity is given as 0.554 ± 0.044 mPa·s, the speed of sound was 1306 ± 3 m/s and the mass density is 862.18 ± 0.73 kg/m3. For the same molecule, in data set [1] (308.15 K), the viscosity was 0.496 ± 0.04 mPa·s, the speed of sound turned out to be 1270 ± 3 m/s and the mass density is on record as 852.79 ± 0.74 kg/m3.

As for `Cc1ccccc1` [toluene] + CCCCC(C)O, in data set [2] (298.15 K), the viscosity was found to be 0.554 ± 0.044 mPa·s, the speed of sound came to 1306 ± 3 m/s and the mass density is on record as 862.18 ± 0.73 kg/m3. In data set [2] (308.15 K), the viscosity came out at 0.496 ± 0.04 mPa·s, the speed of sound is given as 1270 ± 3 m/s and the mass density is reported as 852.79 ± 0.74 kg/m3.

With `Cc1ccccc1` [toluene] + CCCCCC(C)O, in data set [2] (298.15 K), the viscosity stood at 0.554 ± 0.044 mPa·s, the speed of sound was 1306 ± 3 m/s and the mass density amounted to 862.18 ± 0.73 kg/m3. For the same molecule, in data set [2] (308.15 K), the viscosity came out at 0.496 ± 0.04 mPa·s, the speed of sound is given as 1270 ± 3 m/s and the mass density turned out to be 852.79 ± 0.74 kg/m3.

In the case of `Cc1ccccc1` [toluene] + CCCCCCC(C)O, in data set [2] (298.15 K), the viscosity turned out to be 0.554 ± 0.044 mPa·s, the speed of sound is on record as 1306 ± 3 m/s and the mass density is 862.18 ± 0.73 kg/m3. For the same molecule, in data set [2] (308.15 K), the viscosity was found to be 0.496 ± 0.04 mPa·s, the speed of sound was 1270 ± 3 m/s and the mass density stood at 852.79 ± 0.74 kg/m3.
